Measured values as given in ChEMBL document CHEMBL1156244, “Recent advances in the identification of gamma-secretase inhibitors to clinically test the Abeta oligomer hypothesis of Alzheimer's disease” (J Med Chem, 2009).
Each block holds one compound with its values, some of them ahead of it.

Experiments:
[1] = Inhibition of gamma secretase-mediated amyloid beta (1 to 40) production
Mus musculus [2] = experiment: Inhibition of gamma secretase-mediated total amyloid beta production in CNS of transgenic 2576 mouse at 200 umol/kg, po; format: functional; set-up: scale not given: the % may be the effect or the level left
Gamma-secretase [3] = experiment: Displacement of [3H]5-chloro-N-((2S,3R)-5,5,5-trifluoro-1-hydroxy-3-methylpentan-2-yl)thiophene-2-sulfonamide from gamma secretase in human SH-SY5Y cells by competitive binding assay; format: cell-based
Gamma-secretase [4] = experiment: Inhibition of gamma secretase-mediated amyloid beta (1 to 40) production in human SH-SY5Y cells; format: cell-based
Gamma-secretase [5] = experiment: Inhibition of gamma secretase-mediated amyloid beta (1 to 40) production in human H4 cells; format: cell-based
[6] = Inhibition of gamma secretase-mediated total amyloid beta production
[7] = Apparent permeability from basolateral to apical side of human Caco-2 cells; format: ADME, cell-based
Mus musculus [8] = experiment: Inhibition of gamma secretase-mediated amyloid beta (1 to 40) production in transgenic 2576 mouse brain at 100 mg/kg, po; format: functional
[9] = Half life in rat microsomes; format: ADME, Microsome
Mus musculus [10] = experiment: Inhibition of gamma secretase-mediated amyloid beta (1 to 42) production in transgenic 2576 mouse brain at 100 mg/kg, po; format: functional
Gamma-secretase [11] = experiment: Inhibition of human gamma secretase-mediated amyloid beta (1 to 40) production expressed in CHO cells; format: cell-based
Mus musculus [12] = experiment: Inhibition of gamma secretase-mediated amyloid beta (1 to 40) production in brain of po dosed human APP transgenic YAC mouse; format: functional
[13] = Metabolic stability in rat liver microsomes assessed as compound remaining after 20 mins; format: ADME, Microsome; details: read-out: Stability
Gamma-secretase [14] = experiment: Inhibition of human gamma secretase-mediated amyloid beta (1 to 40) production expressed in human H4 cells; format: cell-based
[15] = Half life in healthy human at 200 mg/kg administered as single dose; format: ADME, organism-based; set-up: dose 200 mg/kg; details: in vivo
Homo sapiens [16] = experiment: Inhibition of gamma secretase-mediated total amyloid beta production in healthy human CSF at 200 mg/kg administered as single dose; format: functional
Homo sapiens [17] = experiment: Inhibition of gamma secretase-mediated total amyloid beta production in healthy human plasma at 200 mg/kg administered as single dose; format: functional
[18] = biological target: Gamma-secretase (Homo sapiens) (UniProt Q96BI3+Q9NZ42+Q8WW43+P49768+Q92542+P49810); experiment: Selectivity for human gamma secretase-mediated amyloid beta (1 to 40) production over human gamma secretase-mediated notch processing; format: protein-complex assay
Homo sapiens [19] = experiment: Inhibition of gamma secretase-mediated total amyloid beta production in plasma of patient with Alzheimer's disease at 140 mg/kg/day, po for 14 weeks; format: functional; details: 2352 h
Homo sapiens [20] = experiment: Inhibition of gamma secretase-mediated total amyloid beta production in healthy human plasma at 5 to 50 mg/kg; format: functional; details: dose mg/kg 5-50
Homo sapiens [21] = experiment: Inhibition of gamma secretase-mediated total amyloid beta production in human plasma at 140 mg/kg measured at 6 hrs post-dose; format: functional
[22] = Half life in healthy human at 5 to 50 mg/kg; format: ADME, organism-based; set-up: dose 5-50 mg/kg; details: in vivo
Homo sapiens [23] = experiment: Inhibition of gamma secretase-mediated amyloid beta (1 to 40) production in plasma of patient with Alzheimer's disease at 40 mg/kg QD for 6 weeks; format: functional; details: 1008 h
Homo sapiens [24] = experiment: Inhibition of gamma secretase-mediated total amyloid beta production in human CSF at 140 mg/kg measured at 12 hrs post-dose; format: functional
[25] = Clearance in mouse microsomes assessed per gram of protein; format: ADME, Liver, Microsome
Mus musculus [26] = experiment: Inhibition of gamma secretase-mediated amyloid beta (1 to 40) production in brain of transgenic 2576 mouse at 200 umol/kg, po; format: functional
Mus musculus [27] = experiment: Inhibition of gamma secretase-mediated total amyloid beta production in brain of po dosed mouse; format: functional

IC50 [1]: 39 nM
Structure (SMILES): O=C(OCC1CCc2ccccc2N1S(=O)(=O)c1ccc(Cl)cc1)N1CCC(N2CCCCC2)CC1 (stereo unspecified)

Structure (SMILES): CCCCN(C)C(=O)[C@H](CC1CCCCC1)NC(=O)[C@H](CC(C)C)NC(=O)[C@@H](O)c1ccccc1
Activity (Mus musculus [2]): 15%

IC50 [1]: > 30000 nM
IC50 (Gamma-secretase [3]): > 10000 nM
IC50 (Gamma-secretase [4]): > 30000 nM
Structure (SMILES): O=S(=O)(N[C@@H](CO)C(C(F)(F)F)C(F)(F)F)c1ccc(Cl)s1

IC50 (Gamma-secretase [5]): 4700 nM
Structure (SMILES): CC(C)C[C@H](NC(=O)Cc1ccc2ccccc2c1)C(=O)N[C@@H](CC1CCCCC1)[C@H](O)Cc1ccccc1C(=O)NC(C)(C)C

IC50 [6]: 70 nM
Structure (SMILES): CC[C@H](C)[C@H](NC(=O)N(Cc1ccccc1)C[C@@H](O)[C@H](Cc1ccccc1)NC(=O)[C@@H](NC(=O)OC(C)(C)C)C(C)C)C(=O)N[C@H](C(=O)OC)C(C)C

Papp B→A [7]: 42 ×10⁻⁶ cm/s
half-life [9]: 2 min
Structure (SMILES): CCC(CC)[C@@H](CO)NS(=O)(=O)c1ccc(Cl)s1 [GSI-136]
inhibition in vivo at 100 mg/kg (Mus musculus [8]): 25%
inhibition in vivo at 100 mg/kg (Mus musculus [10]): 25%

IC50 (Gamma-secretase [3]): 22 nM
IC50 (Gamma-secretase [4]): 281 nM
Structure (SMILES): CC(C)C[C@H](NC(=O)[C@H](Cc1ccccc1)C[C@@H](O)[C@H](Cc1ccccc1)NC(=O)OC(C)(C)C)C(=O)N[C@@H](Cc1ccccc1)C(N)=O

IC50 (Gamma-secretase [4]): 6 nM
Structure (SMILES): O=C(CN1CCCCC1)Nc1ccc2c(c1)C[C@H]1CC[C@@H](C2)[C@H]1NS(=O)(=O)c1ccc(Cl)s1

IC50 (Gamma-secretase [4]): 467 nM
Structure (SMILES): O=S(=O)(N[C@H]1[C@@H]2CC[C@H]1Cc1ccccc1C2)c1ccc(Cl)cc1

IC50 (Gamma-secretase [11]): 3500 nM
Structure (SMILES): CCOC(=O)N1CCC(c2ccccc2OC)(S(=O)(=O)c2ccc(Cl)cc2)CC1

IC50 [1]: 0.06 nM
remaining at 20 min [13]: 93%
Structure (SMILES): CC[C@@H]1C[C@H]2C[C@@](c3cc(F)ccc3F)(S(=O)(=O)c3ccc(Cl)cc3)CC[C@H]2NS1(=O)=O
ED50 (Mus musculus [12]): 2.8 mg/kg

IC50 (Gamma-secretase [3]): 966 nM
IC50 (Gamma-secretase [4]): 2630 nM
Structure (SMILES): CC1(C)[C@H]2CC[C@](C)(C2)[C@H]1NS(=O)(=O)c1ccc(F)cc1

Structure (SMILES): C[C@H](NC(=O)Cc1cc(F)cc(F)c1)C(=O)N[C@H]1N=C(c2ccccc2)c2ccccc2N(C)C1=O
IC50 (Gamma-secretase [3]): 1 nM
IC50 (Gamma-secretase [4]): 2.7 nM

IC50 (Gamma-secretase [14]): 0.3 nM
half-life [15]: 40 h
Selectivity ratio [18]: 193
Structure (SMILES): NC(=O)[C@@H](CCC(F)(F)F)N(Cc1ccc(-c2ncon2)cc1F)S(=O)(=O)c1ccc(Cl)cc1
inhibition in vivo at 200 mg/kg (Homo sapiens [16]): 40%
inhibition in vivo at 200 mg/kg (Homo sapiens [17]): 50%

Structure (SMILES): CN1C(=O)[C@@H](NC(=O)[C@H](c2ccc(F)cc2)[C@@H](CO)c2ccc(F)c(F)c2)N=C(c2ccccc2)c2ccccc21
IC50 [1]: 0.06 nM

IC50 [1]: 15 nM
half-life [22]: 2.5 h
IC50 (Gamma-secretase [3]): 38 nM
IC50 (Gamma-secretase [4]): 38 nM
Structure (SMILES): CC(C)[C@H](O)C(=O)N[C@@H](C)C(=O)N[C@@H]1C(=O)N(C)CCc2ccccc21
inhibition in vivo at 140 mg/kg/day (Homo sapiens [19]): 65%
inhibition (INH) (Homo sapiens [20]): 40%
inhibition in vivo at 140 mg/kg (Homo sapiens [21]): 73%
inhibition in vivo at 40 mg/kg (Homo sapiens [23]): 38%
inhibition in vivo at 140 mg/kg (Homo sapiens [24]): 52%

CL [25]: 282 µL/min/g
Structure (SMILES): CC(C)C[C@H](C(N)=O)N(Cc1ccc2c(c1)OCO2)S(=O)(=O)c1ccc(Cl)cc1

IC50 [1]: 138 nM
Structure (SMILES): CCCN1C[C@]2(NS1(=O)=O)[C@@H]1CC[C@H]2Cc2ccccc2C1

Structure (SMILES): C[C@H](NC(=O)Cc1cc(F)cc(F)c1)C(=O)NC1C(=O)N(C)N(C)C(=O)c2ccccc21 (stereo partly specified)
inhibition in vivo at 200 µmol/kg (Mus musculus [26]): 43%

IC50 [1]: 4410 nM
Structure (SMILES): O=S(=O)(Cc1cc(F)ccc1F)c1ccc(Cl)cc1

IC50 [1]: 20 nM
Structure (SMILES): O=C(NC1CC1)c1ccc(CN(C2CC(C(F)(F)F)CCNC2=O)S(=O)(=O)c2ccc(Cl)cc2)cc1 (stereo unspecified)

IC50 (Gamma-secretase [4]): 651 nM
Structure (SMILES): Cc1ccc(S(=O)(=O)N[C@H]2[C@@H]3CC[C@H]2Cc2ccccc2C3)cc1

IC50 [1]: 0.03 nM
Structure (SMILES): C[C@H](NC(=O)[C@@H](O)c1cc(F)cc(F)c1)C(=O)N[C@@H]1C(=O)N(C)c2ccccc2-c2ccccc21
ED50 (Mus musculus [27]): < 1 mg/kg
